Data: patent publication US9918985B2, “Compounds and their use as BACE inhibitors” (ASTRAZENECA AB, priority 2010, dated 2018)

Experiments:
[1] = tested on: sAPPβ release in SH-SY5Y cells; assay: sAPPβ release assay; assay type: cell-based; conditions: 17 h incubation
Description: Thaw cells and seed at a conc. of around 10000 cells/well in DMEM/F-12 with Glutamax, 10% FCS and 1% non-essential amino acids to a 384-well tissue culture treated plate, 100 μL cell susp/well. […] The cell medium was removed, followed by addition of 30 μL compound diluted in DMEM/F-12 with Glutamax, 10% FCS, 1% non-essential amino acids and 1% PeSt to a final conc. of 1% DMSO. The compounds were incubated with the cells for 17 h (overnight) at 37° C., 5% CO2. Meso Scale Discovery (MSD) plates were used for the detection of sAPPIβ release. MSD sAPPIβ plates were blocked in 1% BSA in Tris wash buffer (40 μL/well) for 1 h on shake at r.t. and washed 1 time in Tris wash buffer (40 μL/well). 20 μL of medium was transferred to the pre-blocked and washed MSD sAPPIβ microplates, and the cell plates were further used in an ATP assay to measure cytotoxicity. The MSD plates were incubated with shaking at r.t. for 2 h and the media discarded. 10 μL detection antibody was added (1 nM) per well followed by incubation with shaking at r.t. for 2 h and then discarded. 40 μL Read Buffer was added per well and the plates were read in a SECTOR Imager.

[2] = molecular target: human β-Secretase (soluble part, sBACE-Fc) (Homo sapiens (Human), UniProt P56817); assay: TR-FRET assay; assay type: biochemical; conditions: standard TR-FRET assay, 15 minutes reaction at r.t.
Description: The β-secretase enzyme used in the TR-FRET is prepared as follows:
The cDNA for the soluble part of the human β-Secretase (AA 1-AA 460) was cloned using the ASP2-Fc10-1-IRES-GFP-neoK mammalian expression vector. The gene was fused to the Fc domain of IgG1 (affinity tag) and stably cloned into HEK 293 cells.
The robotic systems Biomek FX and Velocity 11 were used for all liquid handling and the enzyme and substrate solutions were kept on ice until they were placed in the robotic system. Enzyme (9 μl) was added to the plate then 1 μl of compound in dimethylsulphoxide was added, mixed and pre-incubated for 10 minutes. Substrate (10 μl) was then added, mixed and the reaction proceeded for 15 minutes at r.t. The reaction was stopped with the addition of Stop solution (7 μl, NaAcetate, pH 9). […] The dimethylsulphoxide control, instead of test compound, defined the 100% activity level and 0% activity was defined by wells lacking enzyme (replaced with reaction buffer).

human β-Secretase (soluble part, sBACE-Fc), sequence (P56817 22-460): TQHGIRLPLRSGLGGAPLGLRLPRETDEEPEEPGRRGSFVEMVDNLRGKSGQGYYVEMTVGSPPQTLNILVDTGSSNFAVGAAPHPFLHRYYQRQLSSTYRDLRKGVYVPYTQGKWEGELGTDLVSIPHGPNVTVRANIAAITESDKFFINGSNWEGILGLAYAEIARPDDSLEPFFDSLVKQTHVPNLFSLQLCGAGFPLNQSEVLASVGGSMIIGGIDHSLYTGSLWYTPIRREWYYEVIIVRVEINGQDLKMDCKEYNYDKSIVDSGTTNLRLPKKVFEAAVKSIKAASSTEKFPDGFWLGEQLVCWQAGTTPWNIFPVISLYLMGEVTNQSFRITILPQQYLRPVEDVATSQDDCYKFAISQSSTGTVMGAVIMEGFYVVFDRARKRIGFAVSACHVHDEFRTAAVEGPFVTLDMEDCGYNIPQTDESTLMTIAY

| SMILES | IC50 [1] [nM] | IC50 [2] [nM] |
| --- | --- | --- |
| CCC1=NC2(N=C1N)c1cc(-c3cncc(Cl)c3)ccc1C[C@]21CC[C@@H](OC)CC1 (single isomer, unassigned; isomer 1) [Example 66 Isomer 1, (1r,4r)-6′-(5-chloropyridin-3-yl)-5″-ethyl-4-methoxy-3′H-dispiro[cyclohexane-1,2′-indene-1′,2″-imidazol]-4″-amine] | 1.6 | – |
| CO[C@H]1CC[C@]2(CC1)Cc1ccc(-c3ccc(F)cc3F)cc1[C@@]21N=C(C)C(N)=N1 [Example 103, (1r,1′R,4R)-6′-(2,4-Difluorophenyl)-4-methoxy-5″-methyl-3′H-dispiro[cyclohexane-1,2′-indene-1′,2″-imidazol]-4″-amine] | – | 34 |
| CCC1=NC2(N=C1N)c1cc(-c3cccc(C#N)c3)ccc1C[C@]21CC[C@@H](OC)CC1 (single isomer, unassigned; isomer 1) [Example 71 Isomer 1, 3-[(1r,4r)-4″-amino-5″-ethyl-4-methoxy-3′H-dispiro-[cyclohexane-1,2′-indene-1′,2″-imidazol]-6′-yl]benzonitrile] | 5.2 | – |
| CCO[C@H]1CC[C@]2(CC1)Cc1ccc(Br)cc1C21N=C(C)C(N)=N1 (stereo partly drawn) [Example 130, (1r,4r)-6′-Bromo-4-ethoxy-5″-methyl-3′H-dispiro[cyclohexane-1,2′-indene-1′,2″-imidazol]-4″-amine] | – | 842 |
| CC#Cc1cncc(-c2ccc3c(c2)C2(N=C(N)C(CC)=N2)[C@]2(CC[C@H](OC)CC2)C3)c1 (single isomer, unassigned; isomer 1) [Example 68 Isomer 1, (1r,4r)-5″-ethyl-4-methoxy-6′-[5-(prop-1-yn-1-yl)pyridin-3-yl]-3′H-dispiro[cyclohexane-1,2′-indene-1′,2″-imidazol]-4″-amine] | 0.38 | – |
| CCC1=NC2(N=C1N)c1cc(-c3cccc(C#N)c3)ccc1C[C@]21CC[C@@H](OC)CC1 (single isomer, unassigned; isomer 2) [Example 71 Isomer 2, 3-[(1r,4r)-4″-amino-5″-ethyl-4-methoxy-3′H-dispiro-[cyclohexane-1,2′-indene-1′,2″-imidazol]-6′-yl]benzonitrile] | 763 | – |
